Experimental data taken from article PMC6175062, “Gaining Mechanistic Insight Into Coproporphyrin I as Endogenous Biomarker for OATP1B‐Mediated Drug–Drug Interactions Using Population Pharmacokinetic Modeling and Simulation” (Clinical Pharmacology and Therapeutics, 2018).
Like-named read-outs stand apart in the source and are kept apart here.

How the values were obtained:
[1] = Population PK model of rifampicin plasma data, healthy subjects; assay type: in vivo, human; conditions: single 600-mg oral dose
Experimental: Individual plasma and urine data were obtained from a previous study in 12 healthy male subjects.6 The study was split into three occasions (OCC1–3) with a 7‐day washout period between OCC1 and 2 and OCC2 and 3. During each occasion, baseline CPI urine and plasma samples were collected (Figure S2). A single 600‐mg oral dose of RIF and a single 5‐mg oral dose of RSV were administered to the volunteers in OCC1 and OCC2, respectively. Finally, in OCC3 the same respective doses of RIF and RSV were coadministered to healthy volunteers. Plasma (RIF, RSV, and CPI) were collected at predefined timepoints over the 24‐h period following administration of RIF and/or RSV. Urine samples were collected over one time interval (−7 to 0 h) for the pretreatment sample (CPI monitored) and two subsequent intervals (0–7 h and 7–24 h) for posttreatment samples of CPI and RSV. The total number of plasma samples for modeling purposes were 276 (OCC1 = 144, OCC3 = 132), 420 (OCC1 = 144, OCC2 = 144, OCC3 = 132), and 264 (OCC2 = 132, OCC3 = 132) for RIF, CPI, and RSV, respectively, whereas the total number of urine samples were 102 (pretreatment = 34, posttreatment = 68) and 44 for CPI and RSV, respectively. No subjects enrolled in the clinical study had OATP1B1*5 or OATP1B1*15 mutations, associated with altered OATP1B1 activity.
Population PK models were developed sequentially for analysis of RIF, CPI, and RSV plasma and urine data using nonlinear mixed‐effects modeling software, NONMEM, with first‐order conditional estimation method.32 Statistical analysis, GOF plots, and other graphical analysis were conducted in MATLAB. The structural models for RIF and RSV (Supplementary Material) were selected based on population PK models available in the literature.34, 35 An exponential model was used to describe interindividual variability random‐effects parameters and IOV was evaluated for the model parameters; occasions were defined as periods of different visits following recruitment or washout periods. Covariates and random‐effects parameters (IIV and IOV) were retained in the models when there was a significant change in objective function and improvement in GOF plots. The incorporation of IIV and IOV in the models is shown in Equation 2: (2) θik=θ⋅e^ηi+κik where θ ik is the parameter for i^th individual on k^th occasion, θ is the population (typical individual) parameter, η i is the parameter that describes the deviation of the i^th individual parameter from the population (IIV), and k ik the parameter that describes the deviation of the i^th individual from the population in addition to η ik at the k^th occasion (IOV). Both random effect parameters (η ik and k ik) are assumed to be randomly distributed with a mean of zero and the variances are estimated during analysis. Proportional or additive or combination of proportional and additive residual error models were investigated for the residuals.
Based on a previously developed population PK model for RIF, a one compartment first order elimination model with transit absorption model was used to describe plasma concentrations of RIF (12). This model was parameterised using clearance (CL), volume of distribution (V), absorption rate constant (ka), mean transit time (MTT) and number of transit compartments (n). In order to account for the interaction between RIF and CPI and RIF and RSV, sequential analysis of plasma and urine data was conducted. […]

OATP = assay: Model-based rifampicin in vivo OATP Ki using rosuvastatin as probe; parameters: species or system human; conditions: total (not corrected for fu); RSV as probe; read-out: KiRSV, total Ki estimated by the model, population estimate (SE%)
Text: Based on the available plasma and urine data, a two compartment first order absorption and elimination model was used to describe the PK of RSV in the subjects. The model was parameterised using [picture] , volume of distribution of central ( [picture] ) and peripheral compartments ( [picture] ), inter-compartmental clearance ( [picture] ), biliary ( [picture] ) and renal ( [picture] ) clearance parameters. Analogous to CPI, inhibition of [picture] by RIF was incorporated in the rate of change of RSV plasma concentration, whereas it was assumed that RIF has no effect on RSV renal elimination (Eq 2). The rate of change of RSV amount in urine over time is shown in Eq3.
where [picture] and [picture] are RSV concentrations in central (plasma) and peripheral compartments, [picture] is the amount in depot compartment, [picture] is RSV amount in the urine and [picture] is RIF transporter inhibition constant using RSV as a probe. Change in RSV distribution parameters ( [picture] , [picture] and [picture] ) following co-administration with RIF was also investigated as a binary covariate where two sets of parameters were estimated under the two experimental conditions; RSV alone and RSV under treatment (presence of RIF).

[2] = test system: OATP1B-mediated CPI uptake in human hepatocytes; assay: Rifampicin inhibition of CPI uptake in plated human hepatocytes; assay type: cell-based
Experimental: (§1) The in vitro IC50 for rifampicin was assessed using CPI and RSV as OATP probe substrates in plated human hepatocytes. Cryopreserved human hepatocytes (Donor QQE, BioreclamationIVT, Baltimore, MD) were thawed and plated at a density of 350,000 cells (1). After culturing for 4h, hepatocytes were washed twice with Dulbecco's phosphate-buffered saline and pre-incubated for an hour with either buffer or rifampicin (0.01-100µM). Following pre-incubation, the medium was replaced with CPI (0.30µM) or RSV (2µM) containing rifampicin (0-100µM). Incubations were stopped after 3 or 5 minutes (for RSV and CPI,respectively) using the washing protocol described previously (2). Monolayers were lysed with water and frozen overnight and then prepared for protein quantification (BCA assay) and LC-MS/MS analysis.
(§2) Lysate concentrations were used to demine uptake rates over a series of free RIF concentrations measured in the medium and plotted as a % of the control to estimate RIF IC50 (Main article Figure 5A and Figure S1). RIF IC50 was determined using equation 1, where U denotes the uptake rate (% vs control) at the free inhibitor concentration in the incubation [I] (µM); R, the range of inhibition; B, the un-inhibitable background (%), and S, the slope factor (GraFit v6).

OATP1B = assay: as above; assay type: cell-based; conditions: human, plated cryopreserved human hepatocytes, probe CPI (coproporphyrin I) 0.30 µM, CPI 0.30 µM
Experimental: as §1, §2

OATP1B1 = assay: Literature rifampicin in vitro Ki/IC50 in transfected OATP1B1 cells; assay type: cell-based
Text: In addition, literature reported in vitro RIF inhibition data in OATP1B1-transfected cell lines using either CPI or other OATP1B1 probes (Table S5) were collated to understand further any potential differences between in vitro and in vivo estimated RIF inhibition parameters.

[3] = parameters: method as in PMID 25813937; conditions: in humans; cited from earlier work

CO[C@H]1/C=C/O[C@@]2(C)Oc3c(C)c(O)c4c(O)c(c(/C=N/N5CCN(C)CC5)c(O)c4c3C2=O)NC(=O)/C(C)=C\C=C\[C@H](C)[C@H](O)[C@@H](C)[C@@H](O)[C@@H](C)[C@H](OC(C)=O)[C@@H]1C [rifampicin]
CL, population estimate [1]: 3.97 L/h | MTT (mean transit time), population estimate [1]: 0.74 h | V, population estimate [1]: 24.7 L | n (number of transit compartments), population estimate [1]: 8.63 | ka, population estimate ([1]; 12 healthy males): 2.09 h⁻¹ | Ki (OATP): 2.23 µM | IC50 with CPI in hepatocytes, fold lower than reported values in transfected OATP1B1 cells [2]: up to 10 fold | increase in potency of inhibition of CPI uptake by preincubation with RIF [2]: ~2 fold | in vitro hepatocyte inhibition parameter (after preincubation) relative to in vivo Ki ([2]; in vitro higher than in vivo): 4 fold | IC50 at 5 min (OATP1B; 60 min pre-incubation with buffer, read-out: IC50, CPI uptake, pre-incubation with buffer): 0.73 µM | IC50 at 5 min (OATP1B; 60 min pre-incubation with inhibitor, donor QQE, read-out: IC50, CPI uptake, pre-incubation with RIF): 0.3 µM | range in literature RIF IC50 (Table S5) (OATP1B1): 30 fold | difference between in vivo Ki and literature in vitro data in OATP1B1-transfected cells (OATP1B1; depending on in vitro probe): up to 50 fold | unbound liver-to-plasma concentration ratio [3]: 3.3
